Among the data in paper PMC12191008, “Heterostilbene Carbamates with Selective and Remarkable Butyrylcholinesterase Inhibition: Computational Study and Physico-Chemical Properties” (Biomolecules, 2025) are inhibition and IC50 values, retold here.

Structures are written as SMILES. Where “and” joins values, the source holds several entries; their conditions need not be identical. Equal entries are not always repeated. Where two headings read alike, the source gives them in different places.

Assay [1] deals with BChE (EC 3.1.1.8, equine serum) (Equus caballus, UniProt P81908). The experiment in a line: In vitro ChE activity assay (modified Ellman), BChE. In kind it is biochemical. The following applies: for inhibition at 500 µM / inhibition at 50 µM: read-out: BChE % Inhibition.
Sequence of BChE (EC 3.1.1.8, equine serum) (P81908 whole entry): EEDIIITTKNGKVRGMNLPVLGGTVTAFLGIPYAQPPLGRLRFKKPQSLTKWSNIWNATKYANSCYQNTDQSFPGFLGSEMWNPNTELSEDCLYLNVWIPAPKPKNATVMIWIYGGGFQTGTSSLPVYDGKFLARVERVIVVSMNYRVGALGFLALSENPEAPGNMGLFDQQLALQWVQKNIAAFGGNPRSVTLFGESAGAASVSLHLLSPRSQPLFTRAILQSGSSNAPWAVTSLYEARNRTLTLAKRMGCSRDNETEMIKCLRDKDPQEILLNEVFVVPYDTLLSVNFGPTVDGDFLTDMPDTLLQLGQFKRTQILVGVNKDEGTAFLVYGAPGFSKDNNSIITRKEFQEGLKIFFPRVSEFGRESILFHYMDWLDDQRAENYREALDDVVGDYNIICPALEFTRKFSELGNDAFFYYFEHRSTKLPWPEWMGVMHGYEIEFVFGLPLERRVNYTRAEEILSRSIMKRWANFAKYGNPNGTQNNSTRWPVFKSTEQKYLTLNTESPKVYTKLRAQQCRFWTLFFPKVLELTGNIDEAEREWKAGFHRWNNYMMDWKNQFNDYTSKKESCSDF
The test system of assay [2] is LPS-stimulated TNFα production in PBMCs. The experiment in a line: LPS-stimulated TNFα production in PBMCs (ELISA). The following applies: Homo sapiens, PBMC, read-out: IC50, inhibition of LPS-stimulated TNFα production. It is filed as cell-based. Here is the method: The effect of compounds on lipopolysaccharide (LPS)-stimulated tumor necrosis factor alpha (TNFα) production was evaluated as described previously. In short, peripheral blood mononuclear cells (PBMCs) were isolated from buffy coats obtained from healthy adult volunteers and resuspended in RPMI1640 medium (Capricorn Scientific, Ebsdorfergrund, Germany) supplemented with 10% heat-inactivated FBS (Biowest, Bradenton, FL, USA), 1% GlutaMAX (Gibco, Waltham, MA, USA), and 1% antibiotic–antimycotic (Gibco). Then, 2 × 10^5 PBMCs were seeded per well of a 96-well plate. […]
TNFα concentration in supernatants was measured by ELISA using antibodies and recombinant human TNFα protein (standard) from R&D Systems. […] Finally, after the plates were incubated with streptavidin-HRP (Invitrogen, Waltham, MA, USA), chemiluminescence ELISA Substrate (Roche, Basel, Switzerland) was added to the wells, and luminescence was measured using an EnVision 2105 multilabel reader (Revvity, Waltham, MA, USA). Measured luminescence was used to calculate concentrations of TNFα in the supernatants by interpolation from the standard curve. Percentages of inhibition were calculated from obtained cytokine concentrations, and IC50 values were determined using GraphPad Prism v9 software with a nonlinear regression curve fit (four parameters with variable slope).

Where [3] appears, read: at maximal concentration tested.
[4] abbreviates: at maximal concentration tested, 50 μM.

As to `CNC(=O)Oc1ccccc1/C=C/c1cccs1` [Compound 1, (E)-2-(2-(thiophen-2-yl)vinyl)phenyl methylcarbamate], the inhibition (commonly the percentage by which the read-out fell short of the control) at 10 µM in assay [1] (setting [3]) was 84.4 ± 1.18%. Besides, the half-inhibitory concentration (IC50) (usually the midpoint of a concentration-inhibition curve) in assay [1] (read-out: BChE IC50) was 0.5 µM.

Regarding `CNC(=O)Oc1ccc(F)cc1/C=C/c1cccs1` [Compound 2, (E)-4-fluoro-2-(2-(thiophen-2-yl)vinyl)phenyl methylcarbamate], in assay [1] (setting [3]), testing at 100 µM gave an inhibition of 84.7 ± 3.2%. Also, in assay [1] (read-out: BChE IC50), the IC50 came out at 3.74 µM.

Consider `CNC(=O)Oc1ccc(OC)cc1/C=C/c1cccs1` [Compound 3, (E)-4-methoxy-2-(2-(thiophen-2-yl)vinyl)phenyl methylcarbamate], for which the inhibition at 500 µM in assay [1] (at maximal concentration tested, 500 μM) is 82.2 ± 2%. In addition, the IC50 in assay [1] (read-out: BChE IC50) was 150 µM.

With `CNC(=O)Oc1ccc(C)cc1/C=C/c1cccs1` [Compound 4, (E)-4-methyl-2-(2-(thiophen-2-yl)vinyl)phenyl methylcarbamate], the IC50 in assay [1] (BChE IC50) is 1.1 µM and 0.913 µM. This compound also gave an inhibition at 10 µM in assay [1] (setting [3]) of 85.4 ± 2.29%.

Take `CNC(=O)Oc1ccccc1/C=C/c1ccc(C)s1` [Compound 5, (E)-2-(2-(5-methylthiophen-2-yl)vinyl)phenyl methylcarbamate]: the IC50 in assay [1] (BChE IC50) turned out to be 0.913 µM; in assay [1] (read-out: BChE IC50), 1.1 µM. The compound also gave an inhibition at 5 µM in assay [1] (at maximal concentration tested, 5 μM) of 74.8 ± 2.36%.

`CNC(=O)Oc1ccc(F)cc1/C=C/c1ccc(C)s1` [Compound 6, (E)-4-fluoro-2-(2-(5-methylthiophen-2-yl)vinyl)phenyl methylcarbamate] had an IC50 in assay [1] (BChE IC50) of 14.1 µM. In addition, the inhibition at 50 µM in assay [1] was determined as 74 ± 3.2%.

In assay [1] (setting [3]), `CNC(=O)Oc1ccc(Cl)cc1/C=C/c1ccc(C)s1` [Compound 7, (E)-4-chloro-2-(2-(5-methylthiophen-2-yl)vinyl)phenyl methylcarbamate] returned an inhibition at 100 µM of 69.8 ± 1.15%. In addition, the IC50 in assay [1] (read-out: BChE IC50) was found to be 30.4 µM.

Take `CNC(=O)Oc1ccc(Cl)cc1C=Cc1ncc(C)s1` [Compound 8, (E) and (Z)-4-chloro-2-(2-(5-methylthiazol-2-yl)vinyl)phenyl methylcarbamate]: in assay [1] (BChE IC50), the IC50 is 59.1 µM. Besides, the inhibition at 500 µM in assay [1] is 87.21 ± 0.47%.

`CCN(C)C(=O)Oc1ccccc1/C=C/c1cccs1` [Compound 9, (E)-2-(2-(thiophen-2-yl)vinyl)phenyl ethyl(methyl)carbamate]: 10 µM produced 83.9 ± 1.77% inhibition in assay [1] (setting [3]). The IC50 in assay [1] (read-out: BChE IC50) amounted to 0.583 µM.

In turn, `CCN(C)C(=O)Oc1ccc(F)cc1/C=C/c1cccs1` [Compound 10, (E)-4-fluoro-2-(2-(thiophen-2-yl)vinyl)phenyl ethyl(methyl)carbamate] registered an inhibition at 27 µM in assay [1] (at maximal concentration tested, 27 μM) of 83.5 ± 1.49%. For the same compound, the half-maximal inhibitory concentration (IC50) in assay [1] (read-out: BChE IC50) stood at 3.08 µM.

Regarding `CCN(C)C(=O)Oc1ccc(C)cc1/C=C/c1cccs1` [Compound 11, (E)-4-methyl-2-(2-(thiophen-2-yl)vinyl)phenyl ethyl(methyl)carbamate], in assay [1] (setting [3]), the inhibition at 10 µM is 82.8 ± 1.57%. Besides, the IC50 in assay [1] (read-out: BChE IC50) stood at 1.54 µM.

As for `CCN(C)C(=O)Oc1cccc(/C=C/c2cccs2)c1` [Compound 12, (E)-3-(2-(thiophen-2-yl)vinyl)phenyl ethyl(methyl)carbamate], the IC50 in assay [1] (BChE IC50) turned out to be 1.5 µM; in assay [1] (read-out: BChE IC50) it was 1.07 µM. For the same compound, the inhibition at 50 µM in assay [1] (setting [4]) was 83.2 ± 0.84%.

In assay [1] (setting [3]), `CCN(C)C(=O)Oc1cc(OC)ccc1/C=C/c1cccs1` [Compound 13, (E)-5-methoxy-2-(2-(thiophen-2-yl)vinyl)phenyl ethyl(methyl)carbamate] returned an inhibition at 25 µM of 84.4 ± 2.29%. For the same compound, in assay [1] (read-out: BChE IC50), the IC50 amounted to 1.88 µM.

In the case of `CCN(C)C(=O)Oc1ccccc1/C=C/c1ccc(C)s1` [Compound 14, (E)-2-(2-(5-methylthiophen-2-yl)vinyl)phenyl ethyl(methyl)carbamate], the IC50 in assay [1] (BChE IC50) was determined as 85.1 µM; in assay [1] (read-out: BChE IC50) it was 90 µM. Moreover, the inhibition at 250 µM in assay [1] (at maximal concentration tested, 250 μM) came out at 70 ± 0.8%.

Compound `O=C(Oc1ccccc1/C=C/c1cccs1)N1CCOCC1` [Compound 16, (E)-2-(2-(thiophen-2-yl)vinyl)phenyl morpholine-4-carboxylate] gave an inhibition at 1 µM in assay [1] (at maximal concentration tested, 1 μM) of 84.25 ± 0.82%. Further, the IC50 in assay [1] (read-out: BChE IC50) was 0.0265 µM; in assay [2] (average, PBMCs from two donors), 31.6 µM.

`O=C(Oc1ccc(F)cc1/C=C/c1cccs1)N1CCOCC1` [Compound 17, (E)-4-fluoro-2-(2-(thiophen-2-yl)vinyl)phenyl morpholine-4-carboxylate] registered an inhibition at 25 µM in assay [1] (setting [3]) of 82.3 ± 2.44%. Besides, in assay [1] (read-out: BChE IC50), the IC50 is 0.645 µM.

In turn, `Cc1ccc(OC(=O)N2CCOCC2)c(/C=C/c2cccs2)c1` [Compound 18, (E)-4-methyl-2-(2-(thiophen-2-yl)vinyl)phenyl morpholine-4-carboxylate] returned an inhibition at 25 µM in assay [1] (setting [3]) of 87.5 ± 1.31%. The IC50 in assay [1] (read-out: BChE IC50) worked out at 0.43 µM.

Consider `O=C(Oc1cccc(/C=C/c2cccs2)c1)N1CCOCC1` [Compound 19, (E)-3-(2-(thiophen-2-yl)vinyl)phenyl morpholine-4-carboxylate], for which, in assay [1] (setting [4]), the inhibition at 50 µM was found to be 79.7 ± 2.51%. Besides, the IC50 in assay [1] (read-out: BChE IC50) came out at 2.04 µM.

For the compound `C[C@@H]1C[C@H]2[C@@H]3CCC4=CC(=O)C=C[C@]4(C)[C@@]3(F)[C@@H](O)C[C@]2(C)[C@@]1(O)C(=O)CO` [Dexamethasone, reference compound], the IC50 in assay [2] (PBMCs, reference compound) came to 0.0035 µM.
